# Molecular target: T1, IDO1 (Homo sapiens, UniProt P14902)
# Experiment: IDO1 Human Whole Blood Assay
# Type: cell-based
# Conditions: Human Whole Blood Potency, IC50 (nM), LPS and IFNγ 100 ng/mL, overnight (18 h), kynurenine by LC/MS/MS
# Experimental: IDO1 Human Whole Blood Assay Compounds to be tested were serially diluted in ten 3-fold steps in DMSO starting from 10 mM. 3 μL of compound dilutions or DMSO alone were then dispensed from the dilution plate into a polypropylene 96-well assay plate containing 97 μL of RPMI using an Echo 555 acoustic liquid handler (Labcyte). LPS and IFNγ was prepared in RPMI to a 10× of final conc. (1000 ng/mL), final concentration is 100 ng/mL. […] 240 μL of blood was transferred to each of the wells of a v-bottom 96 well plate. 30 μL of compound was transferred from intermediate dilution plate, and incubated for 15 min. 30 μL from stimulants was then transferred to blood and mixed thoroughly. Plate was covered with breathable membrane and incubated at 37° C. for overnight (18 h). […] Plasma was diluted with RPMI in 1:1 ratio and proteins were precipitated out with two volume of Acetonitrile. The plates were centrifuged at 4000×G for 60 min. 20 μL of supernatant was carefully transferred to a 384 well plate contain 40 μL of 0.1% formic acid in water and analyzed by LC/MS/MS. LC/MS/MS analyses were performed using Thermo Fisher's LX4-TSQ Quantum Ultra system. This system consists of four Agilent binary high-performance liquid chromatography (HPLC) pumps and a TSQ Quantum Ultra triple quadrupole MS/MS instrument. For each sample, 5 μL were injected onto an Atlantis T3 column (2.1 mm×150 mm, 3 μm particle size) from Waters. The mobile phase gradient pumped at 0.8 mL/min was used to elute the analytes from the column at 25° C. The elution started at 0% B increasing linearly to 25% B at 6.5 min, holding at 25% for 1 min, re-equilibrating to 10 min. Mobile phase A consisted of 0.1% formic acid in water. Mobile phase B consisted of 0.1% of formic acid in acetonitrile. Data was acquired in positive mode using a HESI interface. The operational parameters for the TSQ Quantum Ultra instrument were a spray voltage of 4000 V, capillary temperature of 380° C., vaporizer temperature 400° C., shealth gas 60 arbitrary units, Aux gas 20 arbitrary units, tube lens 85 and collision gas 1.2 mTorr. SRM chromatograms of kynurenine (Q1: 209.2>Q3:94.0) and internal standard (Q1: 215.3>Q3:98.2) were collected for 90 sec. The peak area was integrated by Xcalibur Quan software. […] Compounds were titrated and IC50's were calculated by 4 parameter sigmoidal curve fitting formula.
# T1 sequence (P14902 whole entry): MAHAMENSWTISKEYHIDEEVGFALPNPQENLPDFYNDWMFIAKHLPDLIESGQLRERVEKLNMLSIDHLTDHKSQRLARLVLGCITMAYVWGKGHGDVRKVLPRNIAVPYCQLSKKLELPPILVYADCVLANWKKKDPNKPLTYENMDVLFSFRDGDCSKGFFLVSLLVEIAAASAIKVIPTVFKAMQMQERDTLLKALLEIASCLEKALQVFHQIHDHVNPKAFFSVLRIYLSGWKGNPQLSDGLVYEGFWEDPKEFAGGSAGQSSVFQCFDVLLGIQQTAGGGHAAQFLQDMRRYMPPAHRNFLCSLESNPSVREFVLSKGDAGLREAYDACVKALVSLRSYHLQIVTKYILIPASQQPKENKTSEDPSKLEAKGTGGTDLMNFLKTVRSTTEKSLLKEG
row,SMILES,IC50 [nM]
1,Cc1cccc(N2CCC(CCn3nc(C(=O)N4CCCC4)c4ccccc43)CC2)c1C [Example 103],1030

# Same assay, conditions: LPS and IFNγ 100 ng/mL, overnight (18 h), kynurenine by LC/MS/MS, read-out: Human Whole Blood Potency, IC50
row,SMILES,IC50 [nM]
1,"Cc1cccc(C2CCC(CCn3nc(C(=O)N4CCC(O)CC4)c4c3CCC4)CC2)c1C (single isomer, unassigned) [Example 95, (1-(2-(4-(2,3-dimethylphenyl)cyclohexyl)ethyl)-1,4,5,6-tetrahydrocyclopenta[c]pyrazol-3-yl)(4-hydroxypiperidin-1-yl)methanone]",166
2,"CC(=O)NC1CCN(C(=O)c2nn(CCC3CCN(c4nccc(C(F)(F)F)c4F)CC3)c3c2CCCC3)CC1 [Example 35, N-[1-[1-[2-[1-[3-fluoro-4-(trifluoromethyl)-2-pyridyl]-4-piperidyl]ethyl]-4,5,6,7-tetrahydroindazole-3-carbonyl]-4-piperidyl]acetamide]",935
3,"Cc1c(F)ccc(N2CCC(CCn3nc(C(=O)N4CCN(C(=O)CO)CC4)c4c3CCC4)CC2)c1C [Example 11, 1-[4-[1-[2-[1-(4-fluoro-2,3-dimethyl-phenyl)piperidin-1-ium-4-yl]ethyl]-5,6-dihydro-4H-cyclopenta[c]pyrazole-3-carbonyl]piperazin-1-yl]-2-hydroxy-ethanone]",800
4,"CC(=O)NC1CCN(C(=O)c2nn(CC[C@H]3CC[C@@H](Oc4ncccc4C)CC3)cc2C2CC2)CC1 [Example 74, N-(1-(4-cyclopropyl-1-(2-((1s,4s)-4-((3-methylpyridin-2-yl)oxy)cyclohexyl)ethyl)-1H-pyrazole-3-carbonyl)piperidin-4-yl)acetamide]",178
5,"CC(=O)NC1CCN(C(=O)c2nn(CC[C@H]3CC[C@@H](Oc4ccc(C)nc4C)CC3)c3c2CCC3)CC1 [Example 67, N-(1-(1-(2-((1s,4s)-4-((2,6-dimethylpyridin-3-yl)oxy)cyclohexyl)ethyl)-1,4,5,6-tetrahydrocyclopenta[c]pyrazole-3-carbonyl)piperidin-4-yl)acetamide]",209
6,"Cc1ccc(Cl)c(O[C@H]2CC[C@@H](CCn3nc(C(=O)N4CCN(C(=O)CO)CC4)c4c3CCC4)CC2)c1 [Example 57, 1-(4-(1-(2-((1s,4s)-4-(2-chloro-5-methylphenoxy)cyclohexyl)ethyl)-1,4,5,6-tetrahydrocyclopenta[c]pyrazole-3-carbonyl)piperazin-1-yl)-2-hydroxyethan-1-one]",517
7,"Cc1cccc(N2CCC(CCn3nc(C(=O)N4CCC(O)CC4)c4c3CCC4)CC2)c1C [Example 1, (1-(2-(1-(2,3-dimethylphenyl)piperidin-4-yl)ethyl)-1,4,5,6-tetrahydrocyclopenta[c]pyrazol-3-yl)(4-hydroxypiperidin-1-yl)methanone]",341
8,"Cc1cccnc1O[C@H]1CC[C@@H](CCn2nc(C(=O)N3CCC(O)CC3)c3c2C[C@H](C(F)F)CC3)CC1 [Example 87, [(6R)-6-(difluoromethyl)-1-(2-{cis-4-[(3-methylpyridin-2-yl)oxy]cyclohexyl}ethyl)-4,5,6,7-tetrahydro-1H-indazol-3-yl](4-hydroxypiperidin-1-yl)methanone]",736
9,"CC(=O)NC1CCN(C(=O)c2nn(CC[C@H]3CC[C@@H](Oc4ccccc4Cl)CC3)c3c2CCC3)CC1 [Example 70, N-[1-[1-[2-[4-(2-chlorophenoxy)cyclohexyl]ethyl]-5,6-dihydro-4H-cyclopenta[c]pyrazole-3-carbonyl]-4-piperidyl]acetamide]",161
10,"CC(=O)NC1CCN(C(=O)c2nn(CC[C@H]3CC[C@@H](Oc4cnccc4C)CC3)c3c2CCC3)CC1 [Example 64, N-(1-(1-(2-((1s,4s)-4-((4-methylpyridin-3-yl)oxy)cyclohexyl)ethyl)-1,4,5,6-tetrahydrocyclopenta[c]pyrazole-3-carbonyl)piperidin-4-yl)acetamide]",215
11,"Cc1c(F)ccc(N2CCC(CCn3nc(C(=O)N4CCC(F)(CO)CC4)c4c3CCC4)CC2)c1C [Example 8, (1-(2-(1-(4-fluoro-2,3-dimethylphenyl)piperidin-4-yl)ethyl)-1,4,5,6-tetrahydrocyclopenta[c]pyrazol-3-yl)(4-fluoro-4-(hydroxymethyl)piperidin-1-yl)methanone]",251
12,"CC(=O)NC1CCN(C(=O)c2nn(CCN3CCN(c4cccc(Cl)c4C)CC3)c3c2[C@@H]2C[C@@H]2C3)CC1 [Example 102, N-(1-((3bR,4aR)-1-(2-(4-(3-chloro-2-methylphenyl)piperazin-1-yl)ethyl)-3b,4,4a,5-tetrahydro-1H-cyclopropa[3,4]cyclopenta[1,2-c]pyrazole-3-carbonyl)piperidin-4-yl)acetamide]",261
13,"CC(=O)NC1CCN(C(=O)c2nn(CC[C@H]3CC[C@@H](Oc4ccccc4C)CC3)c3c2CCC3)CC1 [Example 61, N-(1-(1-(2-((1s,4s)-4-(2-methylphenoxy)cyclohexyl)ethyl)-1,4,5,6-tetrahydrocyclopenta[c]pyrazole-3-carbonyl)piperidin-4-yl)acetamide]",30.6
14,"CC(=O)NC1CCN(C(=O)c2nn(C[C@@H]3C[C@@H](Oc4ccc(Cl)cn4)CCO3)c3c2CC(F)(F)CC3)CC1 [Example 77, 6-{3-[4-(acetylamino)piperidine-1-carbonyl]-5,5-difluoro-4,5,6,7-tetrahydro-1H-indazol-1-yl}-1,5-anhydro-3-O-(5-chloropyridin-2-yl)-2,4,6-trideoxy-D-erythro-hexitol]",136
15,"CC(=O)NC1CCN(C(=O)c2nn(CCC3CCN(c4ccc(F)c(F)c4C)CC3)c3c2CCCC3)CC1 [Example 18, N-[1-[1-[2-[1-(3,4-difluoro-2-methyl-phenyl)-4-piperidyl]ethyl]-4,5,6,7-tetrahydroindazole-3-carbonyl]-4-piperidyl]acetamide]",437
16,"Cc1cccc(N2CCC(C(F)Cn3nc(C(=O)N4C[C@@H](C)O[C@@H](C)C4)c4c3CCC4)CC2)c1C (single isomer, unassigned) [Example 48]",964
17,"CC(=O)NC1CCN(C(=O)c2nn(CC[C@H]3CC[C@@H](Oc4ccccc4C(F)(F)F)CC3)c3c2CCC3)CC1 [Example 65, N-(1-(1-(2-((1s,4s)-4-(2-(trifluoromethyl)phenoxy)cyclohexyl)ethyl)-1,4,5,6-tetrahydrocyclopenta[c]pyrazole-3-carbonyl)piperidin-4-yl)acetamide]",130

# Molecular target: T1, IDO1
# Experiment: IDO1 Cellular Assay in HeLa Cells Stimulated with IFNγ
# Type: cell-based
# Conditions: HeLa Cell Potency, IC50 (nM)
row,SMILES,IC50 [nM]
1,Cc1cccc(N2CCC(CCn3nc(C(=O)N4CCCC4)c4ccccc43)CC2)c1C [Example 103],15.4

# Source: patent US12152019B2, “Arylalkyl pyrazole compounds as indoleamine 2,3-dioxygenase inhibitors” (Merck Sharp & Dohme LLC, priority 2018, dated 2024)
